Results as given in patent publication US12655116B2, “Substituted isophthalic acid diamides” (Bayer Aktiengesellschaft, priority 2020, dated 2026).

Legend:
AMARE [1] = experiment: Post-emergence herbicidal action against AMARE; format: in vivo, Amaranthus retroflexus; settings: Amaranthus retroflexus, 504 h, 20 g/ha, visual assessment about 3 weeks after treatment, 100% = plants have died, 0% = like control plants
Method in brief: (§1)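 Spray, one-leaf stage: WP or EC compound in water, 600–800 l/ha, 0.2% wetting agent. Plants held about 3 weeks in the greenhouse, then visually rated in percent of kill compared with untreated controls.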

SETVI [2] = experiment: Pre-emergence herbicidal action against SETVI; format: in vivo, Setaria viridis; settings: Setaria viridis, 504 h, dosage 80 g/ha
Method in brief: (§2)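 Pre-emergence soil-surface spray of formulated compound (WP or EC; 600 to 800 l/ha; 0.2% wetting agent) over seeds sown in sandy loam. After 3 weeks under greenhouse conditions, damage is estimated visually in percent against untreated plants.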

ALOMY [3] = experiment: Post-emergence herbicidal action against ALOMY; format: in vivo, Alopecurus myosuroides; settings: Alopecurus myosuroides, 504 h, visual assessment about 3 weeks after treatment vs untreated controls; for pest or weed control at 20 g/ha: dosage 20 g/ha
Method in brief: as §1

DIGSA [4] = experiment: Pre-emergence herbicidal action against DIGSA; format: in vivo, Digitaria sanguinalis; settings: Digitaria sanguinalis, 504 h
Method in brief: as §2

LOLRI = experiment: Pre-emergence herbicidal action against LOLRI; format: in vivo, Lolium rigidum; settings: Lolium rigidum, 504 h, 80 g/ha
Method in brief: as §2

DIGSA [5] = experiment: Post-emergence herbicidal action against DIGSA; format: in vivo, Digitaria sanguinalis; settings: Digitaria sanguinalis, 504 h
Method in brief: as §1

SETVI [6] = experiment: Post-emergence herbicidal action against SETVI; format: in vivo, Setaria viridis; settings: Setaria viridis, 504 h; for pest or weed control at 5 g/ha: dosage 5 g/ha; for pest or weed control at 20 g/ha: dosage 20 g/ha
Method in brief: as §1

AVEFA = experiment: Pre-emergence herbicidal action against AVEFA; format: in vivo, Avena fatua; settings: Avena fatua, 504 h, pre-emergence
Method in brief: as §2

MATIN [7] = experiment: Post-emergence herbicidal action against MATIN; format: in vivo, Matricaria inodora; settings: Tripleurospermum inodorum, 504 h, dosage 20 g/ha
Method in brief: as §1

PHBPU [8] = experiment: Post-emergence herbicidal action against PHBPU; format: in vivo, Pharbitis purpurea; settings: Ipomoea purpurea, 504 h; for pest or weed control at 20 g/ha: dosage 20 g/ha
Method in brief: as §1

PHBPU [9] = experiment: Pre-emergence herbicidal action against PHBPU; format: in vivo, Pharbitis purpurea; settings: Ipomoea purpurea, 504 h, dosage 80 g/ha
Method in brief: as §2

VIOTR [10] = experiment: Post-emergence herbicidal action against VIOTR; format: in vivo, Viola tricolor; settings: Viola tricolor, 504 h
Method in brief: as §1

ABUTH [11] = experiment: Post-emergence herbicidal action against ABUTH; format: in vivo, Abutilon theophrasti; settings: Abutilon theophrasti, 504 h, visual assessment about 3 weeks after treatment vs untreated controls; for pest or weed control at 5 g/ha: dosage 5 g/ha; for pest or weed control at 20 g/ha: dosage 20 g/ha
Method in brief: as §1

ECHCG [12] = experiment: Post-emergence herbicidal action against ECHCG; format: in vivo, Echinochloa crus-galli; settings: Echinochloa crus-galli, 504 h, dosage 20 g/ha
Method in brief: as §1

VERPE [13] = experiment: Post-emergence herbicidal action against VERPE; format: in vivo, Veronica persica; settings: Veronica persica, 504 h, 20 g/ha
Method in brief: as §1

VERPE [14] = experiment: Pre-emergence herbicidal action against VERPE; format: in vivo, Veronica persica; settings: Veronica persica, 504 h; for pest or weed control at 80 g/ha: dosage 80 g/ha
Method in brief: as §2

VIOTR [15] = experiment: Pre-emergence herbicidal action against VIOTR; format: in vivo, Viola tricolor; settings: Viola tricolor, 504 h; for pest or weed control at 80 g/ha: dosage 80 g/ha
Method in brief: as §2

ABUTH [16] = experiment: Pre-emergence herbicidal action against ABUTH; format: in vivo, Abutilon theophrasti; settings: Abutilon theophrasti, 504 h; for pest or weed control at 80 g/ha: scored visually after 3 weeks vs untreated controls (100% = plants have died, 0% = like control plants)
Method in brief: as §2

MATIN [17] = experiment: Pre-emergence herbicidal action against MATIN; format: in vivo, Matricaria inodora; settings: Tripleurospermum inodorum, 504 h; for pest or weed control at 20 g/ha: dosage 20 g/ha; for pest or weed control at 80 g/ha: dosage 80 g/ha
Method in brief: as §2

ALOMY [18] = experiment: Pre-emergence herbicidal action against ALOMY; format: in vivo, Alopecurus myosuroides; settings: Alopecurus myosuroides, 504 h, pre-emergence; for pest or weed control at 80 g/ha: scored visually after 3 weeks vs untreated controls (100% = plants have died, 0% = like control plants); for pest or weed control at 20 g/ha: scored visually after 3 weeks, 100% = plants have died, 0% = like control plants
Method in brief: as §2

AMARE [19] = experiment: Pre-emergence herbicidal action against AMARE; format: in vivo, Amaranthus retroflexus; settings: Amaranthus retroflexus, 504 h, scored visually after 3 weeks vs untreated controls, 100% = plants have died, 0% = like control plants
Method in brief: as §2

ECHCG [20] = experiment: Pre-emergence herbicidal action against ECHCG; format: in vivo, Echinochloa crus-galli; settings: Echinochloa crus-galli, 504 h
Method in brief: as §2

POLCO = experiment: Pre-emergence herbicidal action against POLCO; format: in vivo, Polygonum convolvulus; settings: Fallopia convolvulus, 504 h, dosage 80 g/ha
Method in brief: as §2

## CNC(=O)c1c(Br)ccc(C(=O)Nc2nnnn2C)c1Cl [Example 1-177]
AMARE [1]
  pest or weed control at 20 g/ha: 100%
SETVI [2]
  pest or weed control at 80 g/ha: 100%
ALOMY [3]
  pest or weed control at 20 g/ha: 90%
DIGSA [4]; dosage 20 g/ha
  pest or weed control at 20 g/ha: 100%
DIGSA [4]; dosage 80 g/ha
  pest or weed control at 80 g/ha: 100%
LOLRI
  pest or weed control at 80 g/ha: 90%
DIGSA [5]; 5 g/ha
  pest or weed control at 5 g/ha: 90%
DIGSA [5]; 20 g/ha
  pest or weed control at 20 g/ha: 90%
SETVI [6]
  pest or weed control at 5 g/ha: 90%
  pest or weed control at 20 g/ha: 90%
AVEFA
  pest or weed control at 80 g/ha: 100%
AVEFA; 20 g/ha, scored visually after 3 weeks, 100% = plants have died, 0% = like control plants
  pest or weed control at 20 g/ha: 80%
MATIN [7]
  pest or weed control at 20 g/ha: 90%
PHBPU [8]
  pest or weed control at 20 g/ha: 80%
PHBPU [9]
  pest or weed control at 80 g/ha: 80%
VIOTR [10]; 5 g/ha
  pest or weed control at 5 g/ha: 90%
VIOTR [10]
  pest or weed control at 20 g/ha: 90%
ABUTH [11]
  pest or weed control at 5 g/ha: 90%
  pest or weed control at 20 g/ha: 90%
ECHCG [12]
  pest or weed control at 20 g/ha: 90%
VERPE [13]
  pest or weed control at 20 g/ha: 80%
VERPE [14]
  pest or weed control at 80 g/ha: 100%
VIOTR [15]
  pest or weed control at 80 g/ha: 100%
ABUTH [16]
  pest or weed control at 80 g/ha: 100%
MATIN [17]
  pest or weed control at 20 g/ha: 90%
  pest or weed control at 80 g/ha: 100%
ALOMY [18]
  pest or weed control at 80 g/ha: 100%
  pest or weed control at 20 g/ha: 80%
AMARE [19]
  pest or weed control at 20 g/ha: 100%
  pest or weed control at 80 g/ha: 100%
ECHCG [20]; 20 g/ha
  pest or weed control at 20 g/ha: 80%
ECHCG [20]
  pest or weed control at 80 g/ha: 100%

## CCNC(=O)c1c(Br)ccc(C(=O)Nc2nnnn2CC)c1Br [Example 2-342]
AMARE [1]
  pest or weed control at 20 g/ha: 100%
SETVI [2]
  pest or weed control at 80 g/ha: 100%
ALOMY [3]; dosage 5 g/ha
  pest or weed control at 5 g/ha: 90%
ALOMY [3]
  pest or weed control at 20 g/ha: 90%
LOLRI
  pest or weed control at 80 g/ha: 80%
SETVI [6]
  pest or weed control at 5 g/ha: 90%
  pest or weed control at 20 g/ha: 90%
AVEFA
  pest or weed control at 80 g/ha: 90%
PHBPU [8]; dosage 5 g/ha
  pest or weed control at 5 g/ha: 80%
PHBPU [8]
  pest or weed control at 20 g/ha: 90%
VIOTR [10]
  pest or weed control at 20 g/ha: 80%
ABUTH [11]
  pest or weed control at 5 g/ha: 80%
  pest or weed control at 20 g/ha: 90%
POLCO
  pest or weed control at 80 g/ha: 80%
VERPE [14]; dosage 20 g/ha
  pest or weed control at 20 g/ha: 80%
VERPE [14]
  pest or weed control at 80 g/ha: 80%
VIOTR [15]; dosage 20 g/ha
  pest or weed control at 20 g/ha: 90%
VIOTR [15]
  pest or weed control at 80 g/ha: 100%
ABUTH [16]
  pest or weed control at 80 g/ha: 100%
ABUTH [16]; dosage 20 g/ha, scored visually after 3 weeks vs untreated controls, 100% = plants have died, 0% = like control plants, read-out: Pre-emergence action against ABUTH (herbicidal activity in percent)
  pest or weed control at 20 g/ha: 100%
MATIN [17]
  pest or weed control at 20 g/ha: 90%
  pest or weed control at 80 g/ha: 100%
ALOMY [18]
  pest or weed control at 80 g/ha: 100%
  pest or weed control at 20 g/ha: 90%
AMARE [19]
  pest or weed control at 20 g/ha: 90%
  pest or weed control at 80 g/ha: 100%
ECHCG [20]
  pest or weed control at 80 g/ha: 80%
